Test results as given in patent publication US7531320B2, “Modulation of β-catenin/TCF-activated transcription” (priority 2003, dated 2009).

Experiments:
Assay type in all cases: cell-based, human
[1] = system: hnkd; experiment: Real Time RT-PCR in SW480 cells, hnkd; details: 25 μM; for ΔCT hnkd: relative to β-actin
Experimental: The RNeasy Midi Kit (Qiagen) was used for RNA extraction and Real Time RT-PCR was performed according to the protocol provided with the SYBR Green PCR Master Mix Kit (Perkin Elmer Biosystems, Shelton, Conn.). The primers used for cyclin D1, axin2, hnkd, c-myc, c-jun, and fra-1 amplifications were: cyclin D1 forward primer:5′-[…]-CCTGCTG-3′ (SEQ ID NO: 32) reverse primer: 5′-[…]-3′ (SEQ ID NO: 33) leading to a product size of approximately 300 bp; axin2 forward primer: 5′-[…] GGAAA-CT-3′ (SEQ ID NO: 34) and reverse primer: 5′-[…]-GAGA-3′ (SEQ ID NO: 35); hnkd forward primer: 5′-[…] TTGCGT-3′ (SEQ ID NO: 36) and the reverse primer: 5′-[…] ACGT-3′ (SEQ ID NO: 37); c-myc forward primer: 5′-GAA-[…] CTGC-3′ (SEQ ID NO: 38) and reverse primer: 5′-[…]-G-3′ (SEQ ID NO: 39); c-jun forward primer: 5′-[…]-3′ (SEQ ID NO: 40) and reverse primer: 5′-[…]-3′ (SEQ ID NO: 41); fra-1 forward primer: 5′-ACC-[…]-[…]-3′ (SEQ ID NO: 42) and reverse primer: 5′-[…]-TT-3′ (SEQ ID NO: 43). β-actin was used for normalization. […]
1 μg of mRNA, for each time point, was subjected to Real Time RT-PCR. Expression level of endogenous cyclin D1, c-myc, fibronectin, hnkd, axin2, c-jun, and BMP-4 were measured relative to β-actin. Quantitation of The ΔCycle of Threshold (CT) values was determined by subtracting the average values of each set by the corresponding average values obtained for β-actin. […]
The cyclin D1 gene is inappropriately expressed in many different tumor types, and is known to be a direct target of the Wnt/β-catenin pathway (Shtutman et al., “The cyclin D1 gene is a target of the beta-catenin/LEF-1 pathway,” Proc. Natl. Acad. Sci. USA 96:5522-27 (1999); Tetsu et al., “Beta-catenin regulates expression of cyclin D1 in colon carcinoma cells,” Nature 398:422-26 (1999)). […] Expression level of endogenous cyclin D1, c-myc, fibronectin, hnkd, axin2, c-jun, and BMP-4 were measured relative to β-actin. Quantitation of The ΔCycle of Threshold (CT) values was determined by subtracting the average values of each set by the corresponding average values obtained for β-actin. […]

[2] = system: caspase-3/7 in SW480 cells; experiment: Caspase-3/7 activity assay, SW480 cells; details: 25 μM, 24 hours, compared to CCD18Co cells
Experimental: FIG. 6. • A. COMPOUND 1 arrests cells in G1. FACS analysis was performed on SW480 (lower panel) and HCT116 (upper panel) cells treated for 24 hours with either COMPOUND 1 (25 μM) (right) or control (0.5% DMSO (left). 5.5×10^6 cells were fixed and stained with propidium iodide (PI). G0/G1, S, and G2/M are indicated by arrows. • B. COMPOUND 1 selectively activates caspases in colon carcinoma cell lines. SW480 and HCT116 (left graph) cells (10^5) along with the normal colonocytes, CCD18Co (right graph) were treated with either control (0.5% DMSO) or COMPOUND 1 (25 μM). 24 hours post treatment, cells were lysed and the caspase-3/7 enzymatic activities were measured. Relative fluorescence units (RFU) were calculated by subtracting the unit values of the blank (control, without cells) from the treated samples (COMPOUND 1 or control) and plotted.
SW480, HCT116, and CCD18Co cells were plated at 10^5 cells per well (96-well plates) for 24 hours prior to treatment. 25 μM of COMPOUND 1 or control (0.5% DMSO) was added to each well. 24 hours post treatment, cells were lysed and caspase activity was measured using a caspase-3/7 activity kit (Apo-One Homogeneous caspase-3/7 assay, #G77905, Promega). Relative fluorescence units (RFU) were obtained by subtracting the unit values of the blank (control, without cells) from the experimental measured values. […]

[3] = system: SW480 cells; experiment: Soft agar colony formation assay with SW480 cells

O=C1C(Cc2ccc(O)cc2)N2C(=O)CCN(C(=O)NCc3ccccc3)C2CN1Cc1cccc2ccccc12 (stereo not drawn) [COMPOUND 1]
mRNA hnkd (direction) [1]: ↓ | ΔCT hnkd ([1]; 4 hours): 0.3 | ΔCT hnkd ([1]; 8 hours): 1.0 | Caspase-3/7 activity [2]: specifically and significantly activated | Number of colonies formed in soft agar ([3]; 0.25-5 μM): dose dependent decrease | IC50 ([3]; 5000 cells/well, colonies counted after 8 days): 870 ± 110 nM
